Laboratory results published in the NIST ThermoML archive (doi:10.1021/je0603325).
± gives the expanded uncertainty stated by the source.

Experiments:
[1] = xn = mol fraction of the nth substance listed; conditions: 101 kPa, Liquid, x2 = 0
[2] = 101 kPa, Liquid
[3] = molar heat capacity at constant pressure; conditions: 101 kPa, Liquid, Small sample (50 mg) DSC

## CCCCCCC [heptane] + BrCCBr
[1]; 293.15 K
  mass density: 683.82 ± 0.63 kg/m3
[1]; 298.15 K
  mass density: 679.59 ± 0.63 kg/m3
[1]; 303.15 K
  mass density: 675.31 ± 0.64 kg/m3
[1]; 308.15 K
  mass density: 671.02 ± 0.65 kg/m3
[1]; 313.15 K
  mass density: 666.68 ± 0.65 kg/m3

## CCCCCCC [heptane]
[2]; 293.15 K
  mass density: 683.82 ± 0.63 kg/m3
[2]; 298.15 K
  mass density: 679.59 ± 0.63 kg/m3
[2]; 303.15 K
  mass density: 675.31 ± 0.64 kg/m3
[2]; 308.15 K
  mass density: 671.02 ± 0.65 kg/m3
[2]; 313.15 K
  mass density: 666.68 ± 0.65 kg/m3

## BrCCBr [1,2-dibromoethane]
[3]; 293.15 K
  molar heat capacity at constant pressure: 136.87 ± 2.1 J/K/mol
[3]; 294.15 K
  molar heat capacity at constant pressure: 136.9 ± 2.1 J/K/mol
[3]; 295.15 K
  molar heat capacity at constant pressure: 136.95 ± 2.1 J/K/mol
[3]; 296.15 K
  molar heat capacity at constant pressure: 136.99 ± 2.1 J/K/mol
[3]; 297.15 K
  molar heat capacity at constant pressure: 137.02 ± 2.1 J/K/mol
[3]; 298.15 K
  molar heat capacity at constant pressure: 137.04 ± 2.1 J/K/mol
[3]; 299.15 K
  molar heat capacity at constant pressure: 137.09 ± 2.1 J/K/mol
[3]; 300.15 K
  molar heat capacity at constant pressure: 137.11 ± 2.1 J/K/mol
[3]; 301.15 K
  molar heat capacity at constant pressure: 137.15 ± 2.1 J/K/mol
[3]; 302.15 K
  molar heat capacity at constant pressure: 137.2 ± 2.1 J/K/mol
[3]; 303.15 K
  molar heat capacity at constant pressure: 137.25 ± 2.1 J/K/mol
[3]; 304.15 K
  molar heat capacity at constant pressure: 137.29 ± 2.1 J/K/mol
[3]; 305.15 K
  molar heat capacity at constant pressure: 137.32 ± 2.1 J/K/mol
[3]; 306.15 K
  molar heat capacity at constant pressure: 137.39 ± 2.1 J/K/mol
[3]; 307.15 K
  molar heat capacity at constant pressure: 137.42 ± 2.1 J/K/mol
[3]; 308.15 K
  molar heat capacity at constant pressure: 137.49 ± 2.1 J/K/mol
[3]; 309.15 K
  molar heat capacity at constant pressure: 137.53 ± 2.1 J/K/mol
[3]; 310.15 K
  molar heat capacity at constant pressure: 137.6 ± 2.1 J/K/mol
[3]; 311.15 K
  molar heat capacity at constant pressure: 137.65 ± 2.1 J/K/mol
[3]; 312.15 K
  molar heat capacity at constant pressure: 137.71 ± 2.1 J/K/mol
[3]; 313.15 K
  molar heat capacity at constant pressure: 137.77 ± 2.1 J/K/mol
[2]; 292.84 K
  speed of sound: 1007.5 ± 2.4 m/s
[2]; 293.15 K
  mass density: 2178.77 ± 2.9 kg/m3
[2]; 298.15 K
  mass density: 2168.41 ± 2.9 kg/m3
[2]; 299.17 K
  speed of sound: 991.14 ± 2.4 m/s
[2]; 303.15 K
  mass density: 2157.94 ± 2.9 kg/m3
[2]; 303.37 K
  speed of sound: 980.18 ± 2.4 m/s
[2]; 308.15 K
  mass density: 2147.47 ± 2.8 kg/m3
[2]; 308.75 K
  speed of sound: 966.56 ± 2.4 m/s
[2]; 313.15 K
  mass density: 2136.96 ± 2.8 kg/m3
[2]; 314.45 K
  speed of sound: 952 ± 2.3 m/s
